Assay results published in patent US12650424B2, “Method and system for determining intracellular mediators' activity” (ECOLE POLYTECHNIQUE FEDERALE DE LAUSANNE (EPFL), priority 2020, dated 2026).

What was measured:
[1] = system: Protease-activated receptor PAR; experiment: dose response of GPCR activation in plasma membranes on immunostained WGA-beads (Gαq release); format: biochemical; conditions: plasma membranes of HEK cells on beads; different concentrations
Text: FIG. 3. Schematic representation of the synthetic GPCR screening platform. 1. […] 2. […] 3. […] This leads to fluorescence labeled Gα-protein subunits. 4. […] 5.

angiotensin receptor = conditions: plasma membranes of HEK cells on beads

Substance	receptor activation triggering release of Gαq [1]	receptor activation triggering release of Gαi (angiotensin receptor)
thrombin	activated by different concentrations	
angiotensin		activated in a dose-dependent manner
